pIC50: −log10 of the molar value. Like-named read-outs stand apart in the source and are kept apart here.
What was measured:
[1] = target: human CDK9/CyclinT kinase complex (Homo sapiens (Human), UniProt P50750); test: In Vitro CDK9/CyclinT Assay (IMAP fluorescent polarization); type: biochemical
Method in brief: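 Phosphorylation of 400 nM TAMRA-Rbtide (15-mer retinoblastoma-derived peptide) by 5 nM CDK9/CyclinT with 12 μM ATP (=Kmapp) in 20 mM MOPS pH 7, 1 mM DTT, 10 mM MgCl2, 0.01% Tween 20. Reaction run 1 hour at room temperature, stopped with IMAP beads; read by fluorescence polarization.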

[2] = system: laboratory strain of HIV-1; test: Antiviral Activity Against HIV (AV), p24 in infected activated primary T cells; type: cell-based; settings: for pIC50: read-out: AV50, Table 5; for antiviral and antiproliferative activity and cytotoxicity profile / anti-HIV and cytotoxicity profile: summary in words
Protocol: Antiviral Activity Against HIV (AV)
Activated primary T cells are infected with a laboratory strain of HIV-1, then cultured and exposed to different concentrations of the test compounds. HIV replication is analysed by measuring the viral protein p24 and expressed as percentage of untreated control. Inhibition of viral replication (AV) is then calculated (AV=100 minus the % p24 compared to control, AV of control=0%). Inhibitory concentration 50% for antiviral activity (AV50) is calculated.

Primary T cells = test: Cytotoxicity, viability by flow cytometry; type: cell-based
Protocol: Primary T cells are cultured and treated with different concentrations of the test compound. Viability is analysed by measuring through flow cytometry based techniques the percentage of viable cells, compared to untreated control=100%).

[3] = Table 4, toxic dose 50%, viable cells

Sequence of human CDK9/CyclinT kinase complex (P50750 whole entry): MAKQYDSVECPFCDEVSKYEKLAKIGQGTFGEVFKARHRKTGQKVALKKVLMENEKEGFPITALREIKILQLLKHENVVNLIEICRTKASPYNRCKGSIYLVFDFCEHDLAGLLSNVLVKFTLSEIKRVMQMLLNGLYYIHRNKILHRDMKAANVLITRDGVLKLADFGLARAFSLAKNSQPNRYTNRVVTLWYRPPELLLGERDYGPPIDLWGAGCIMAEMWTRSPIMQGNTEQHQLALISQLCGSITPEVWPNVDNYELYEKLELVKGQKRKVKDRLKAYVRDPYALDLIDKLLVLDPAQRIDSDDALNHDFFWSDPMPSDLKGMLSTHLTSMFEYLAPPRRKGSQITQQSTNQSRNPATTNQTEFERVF
Sequence of human CDK9/CyclinT kinase complex (O60563 whole entry partner): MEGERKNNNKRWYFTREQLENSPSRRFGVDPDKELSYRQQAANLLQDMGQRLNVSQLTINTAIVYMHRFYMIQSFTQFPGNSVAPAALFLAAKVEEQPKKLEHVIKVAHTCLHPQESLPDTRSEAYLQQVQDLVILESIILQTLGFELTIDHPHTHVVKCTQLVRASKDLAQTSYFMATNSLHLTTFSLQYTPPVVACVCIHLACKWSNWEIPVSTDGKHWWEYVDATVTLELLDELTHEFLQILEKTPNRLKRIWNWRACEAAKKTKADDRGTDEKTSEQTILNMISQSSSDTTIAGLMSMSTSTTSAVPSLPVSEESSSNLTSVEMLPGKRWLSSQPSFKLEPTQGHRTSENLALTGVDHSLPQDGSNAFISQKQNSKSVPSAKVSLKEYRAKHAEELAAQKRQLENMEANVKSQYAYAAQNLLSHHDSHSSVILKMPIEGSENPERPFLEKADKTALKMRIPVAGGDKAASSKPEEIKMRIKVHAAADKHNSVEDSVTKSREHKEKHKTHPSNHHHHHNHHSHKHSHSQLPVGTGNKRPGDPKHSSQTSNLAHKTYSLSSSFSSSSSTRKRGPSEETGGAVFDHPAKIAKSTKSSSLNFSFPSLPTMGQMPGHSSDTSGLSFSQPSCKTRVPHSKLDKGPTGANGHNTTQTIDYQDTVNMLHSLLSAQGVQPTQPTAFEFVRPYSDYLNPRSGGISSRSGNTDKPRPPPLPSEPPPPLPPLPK

Structure (SMILES): COc1ccc(Nc2cc(-c3ccccc3OC)ncn2)cc1CN1C(=O)c2ccccc2C1=O [Example 3, 2-(2-Methoxy-5-(6-(2-methoxyphenyl)pyrimidin-4-ylamino)benzyl)isoindoline-1,3-dione]
- pIC50 [1]: > 6.00
- pIC50 [2]: < 6.00
- TD50 (Primary T cells; [3]): >5 µM
- TD50 (Primary T cells; Table 5): >5 µM

Structure (SMILES): COc1ccccc1-c1cc(Nc2ccc(N(C)C)cc2)ncn1 [Example 5, N^1-(6-(2-methoxyphenyl)pyrimidin-4-yl)-N^4,N^4-dimethylbenzene-1,4-diamine]
- pIC50 ([1]; Table 1): > 6.00
- antiviral and antiproliferative activity and cytotoxicity profile [2]: good antiviral and antiproliferative activity and a good cytotoxicity profile
- TD50 (Primary T cells; [3]): >10 µM

Structure (SMILES): CNS(=O)(=O)Nc1cc(Nc2cc(-c3ccccc3OC)ncn2)ccc1OC [Example 10, (2-Methoxy-5-(6-(2-methoxyphenyl)pyrimidin-4-ylamino)phenyl)(methylsulfamoyl)amine]
- pIC50 ([1]; Table 1): > 7.00
- antiviral and antiproliferative activity and cytotoxicity profile [2]: good antiviral and antiproliferative activity and a good cytotoxicity profile
- TD50 (Primary T cells): 3 µM

Structure (SMILES): COc1ccccc1-c1cc(Nc2ccc(OC)c([N+](=O)[O-])c2)ncn1 [Example 11, N-(4-Methoxy-3-nitrophenyl)-6-(2-methoxyphenyl)pyrimidin-4-amine]
- pIC50 ([1]; Table 1): > 6.00
- pIC50 ([1]; Table 5): > 6.00
- pIC50 [2]: < 5.82
- TD50 (Primary T cells): >1.5 µM

Structure (SMILES): COc1ccccc1-c1cc(Nc2ccc(O)c([N+](=O)[O-])c2)ncn1 [Example 12, 4-(6-(2-methoxyphenyl)pyrimidin-4-ylamino)-2-nitrophenol]
- pIC50 ([1]; Table 1): > 6.00
- pIC50 ([1]; Table 5): > 6.00
- pIC50 [2]: < 5.82
- TD50 (Primary T cells): >1.5 µM

Structure (SMILES): COc1ccc(Nc2cc(-c3ccccc3OC)ncn2)cc1NS(=O)(=O)NC1CCCCC1 [Example 13, (2-Methoxy-5-(6-(2-methoxyphenyl)pyrimidin-4-ylamino)phenyl) (cyclohexylsulfamoyl)amine]
- pIC50 ([1]; Table 1): > 6.00
- antiviral and antiproliferative activity and cytotoxicity profile [2]: good antiviral and antiproliferative activity and a good cytotoxicity profile
- TD50 (Primary T cells): 5 µM

Structure (SMILES): COc1ccccc1-c1cc(Nc2ccc(Cl)c(Cn3cnc4ccccc43)c2)ncn1 [Example 16, N-(3-((1H-benzo[d]imidazol-1-yl)methyl)-4-chlorophenyl)-6-(2-methoxyphenyl)pyrimidin-4-amine]
- pIC50 [1]: > 7.00
- antiviral and antiproliferative activity and cytotoxicity profile [2]: good antiviral and antiproliferative activity and a good cytotoxicity profile
- TD50 (Primary T cells): 1.5 µM

Structure (SMILES): COc1ccc(Nc2cc(-c3ccccc3OC)ncn2)cc1OC(=O)C(C)(C)C [Example 26, 2-methoxy-5-(6-(2-methoxyphenyl)pyrimidin-4-ylamino)phenyl pivalate]
- pIC50 [1]: > 5.00
- antiviral and antiproliferative activity and cytotoxicity profile [2]: good antiviral and antiproliferative activity and a good cytotoxicity profile
- TD50 (Primary T cells): 6 µM

Structure (SMILES): COc1ccc(Nc2cc(-c3ccccc3OC)ncn2)cc1Cn1cnc2ccccc21 [Example 31, N-(3-((1H-Benzo[d]imidazol-1-yl)methyl)-4-methoxyphenyl)-6-(2-methoxyphenyl)pyrimidin-4-amine]
- pIC50 [1]: > 7.00
- antiviral and antiproliferative activity and cytotoxicity profile [2]: good antiviral and antiproliferative activity and a good cytotoxicity profile
- TD50 (Primary T cells): 1.8 µM

Structure (SMILES): COc1ccc(Nc2cc(-c3ccccc3OC)ncn2)cc1O [Example 32, 2-Methoxy-5-(6-(2-methoxyphenyl)pyrimidin-4-ylamino)phenol]
- pIC50 ([1]; Table 1): > 7.00
- antiviral and antiproliferative activity and cytotoxicity profile [2]: good antiviral and antiproliferative activity and a good cytotoxicity profile
- TD50 (Primary T cells): 20 µM

Structure (SMILES): COc1ccc(Nc2cc(-c3ccccc3OC)ncn2)cc1N [Example 41, 4-Methoxy-N1-(6-(2-methoxyphenyl)pyrimidin-4-yl)benzene-1,3-diamine]
- pIC50 [1]: > 6.00
- antiviral and antiproliferative activity and cytotoxicity profile [2]: good antiviral and antiproliferative activity and a good cytotoxicity profile
- TD50 (Primary T cells): 8.5 µM

Structure (SMILES): COc1ccccc1-c1cc(Nc2ccc(N(C)C)c(Cn3cnc4ccccc43)c2)ncn1 [Example 42, 2-((1H-Benzo[d]imidazol-1-yl)methyl)-N4-(6-(2-methoxyphenyl)pyrimidin-4-yl)-N1,N1-dimethylbenzene-1,4-diamine]
- pIC50 [1]: > 6.00
- pIC50 [2]: < 5.30
- TD50 (Primary T cells): 4 µM

Structure (SMILES): COc1ccc(Nc2cc(-c3ccccc3OC)ncn2)cc1CN [Example 43, N-(3-(Aminomethyl)-4-methoxyphenyl)-6-(2-methoxyphenyl)pyrimidin-4-amine]
- pIC50 [1]: > 6.00
- pIC50 [2]: < 6.00
- antiviral and antiproliferative activity and cytotoxicity profile [2]: good antiviral and antiproliferative activity and a good cytotoxicity profile
- TD50 (Primary T cells): 2 µM

Structure (SMILES): COc1ccc(Nc2cc(-c3ccccc3OC)ncn2)cc1C(N)=O [Example 45, 2-methoxy-5-(6-(2-methoxyphenyl)pyrimidin-4-ylamino)benzamide]
- pIC50 [1]: > 7.00
- antiviral and antiproliferative activity and cytotoxicity profile [2]: good antiviral and antiproliferative activity and a good cytotoxicity profile
- TD50 (Primary T cells): 15 µM

Structure (SMILES): COc1ccc(Nc2cc(-c3ccccc3OC)ncn2)cc1C(=O)O [Example 49, 2-Methoxy-5-[6-(2-methoxy-phenyl)-pyrimidin-4-ylamino]-benzoic acid]
- pIC50 ([1]; Table 1): > 6.00
- pIC50 ([1]; Table 5): > 6.00
- pIC50 [2]: < 5.00
- TD50 (Primary T cells): >10 µM

Structure (SMILES): COc1cc(Nc2cc(-c3ccccc3OC)ncn2)ccc1N [Example 59, 2-Methoxy-N^4-[6-(2-methoxy-phenyl)-pyrimidin-4-yl]-benzene-1,4-diamine]
- pIC50 ([1]; Table 1): > 6.00
- pIC50 ([1]; Table 5): > 6.00
- pIC50 [2]: < 5.70
- TD50 (Primary T cells): >2 µM

Structure (SMILES): CCOc1ccccc1-c1cc(Nc2ccc(OC)c(N)c2)ncn1 [Example 62, N^1-[6-(2-Ethoxy-phenyl)-pyrimidin-4-yl]-4-methoxy-benzene-1,3-diamine]
- pIC50 ([1]; Table 1): > 6.00
- antiviral and antiproliferative activity and cytotoxicity profile [2]: good antiviral and antiproliferative activity and a good cytotoxicity profile
- TD50 (Primary T cells): 4 µM

Structure (SMILES): COc1ccc(Nc2cc(-c3ccc(F)cc3OC)ncn2)cc1N [Example 64]
- pIC50 ([1]; Table 1): > 6.00
- pIC50 ([1]; Table 5): > 6.00
- antiviral and antiproliferative activity and cytotoxicity profile [2]: good antiviral and antiproliferative activity and a good cytotoxicity profile
- TD50 (Primary T cells): 5 µM

Structure (SMILES): CCOc1cc(F)ccc1-c1cc(Nc2ccc(OC)c(N)c2)ncn1 [Example 73, N^1-[6-(2-Ethoxy-4-fluoro-phenyl)-pyrimidin-4-yl]-4-methoxy-benzene-1,3-diamine]
- pIC50 ([1]; Table 1): > 6.00
- antiviral and antiproliferative activity and cytotoxicity profile [2]: good antiviral and antiproliferative activity and a good cytotoxicity profile
- TD50 (Primary T cells): 6 µM

Structure (SMILES): COc1ccc(Nc2cc(-c3ccc(F)cc3OC)ncn2)cc1OC(C)=O [Example 126, Acetic acid 5-[6-(4-fluoro-2-methoxy-phenyl)-pyrimidin-4-ylamino]-2-methoxy-phenyl ester]
- pIC50 [1]: > 6.00
- TD50 (Primary T cells; [3]): >2 µM

Structure (SMILES): COc1ccccc1-c1cc(Nc2ccc(C(N)=O)c(Cl)c2)ncn1 [Example 132, 2-Chloro-4-[6-(2-methoxy-phenyl)-pyrimidin-4-ylamino]-benzamide]
- pIC50 ([1]; Table 1): > 6.00
- pIC50 ([1]; Table 5): > 6.00
- TD50 (Primary T cells): >10 µM

Structure (SMILES): COC(=O)c1ccc(Nc2cc(-c3ccccc3OC)ncn2)cc1OC [Example 133, 2-Methoxy-4-[6-(2-methoxy-phenyl)-pyrimidin-4-ylamino]-benzoic acid methyl ester]
- pIC50 ([1]; Table 1): > 6.00
- pIC50 ([1]; Table 5): > 6.00
- TD50 (Primary T cells): >10 µM

Structure (SMILES): COc1ccccc1-c1cc(Nc2cc(F)c(OC)c(C(N)=O)c2)ncn1 [Example 137, 3-Fluoro-2-methoxy-5-[6-(2-methoxy-phenyl)-pyrimidin-4-ylamino]-benzamide]
- pIC50 ([1]; Table 1): > 5.00
- TD50 (Primary T cells): >2 µM

Structure (SMILES): COc1cc(F)ccc1-c1cc(Nc2cc(F)c(OC)c(C(N)=O)c2)ncn1 [Example 138, 3-Fluoro-5-[6-(4-fluoro-2-methoxy-phenyl)-pyrimidin-4-ylamino]-2-methoxy-benzamide]
- pIC50 ([1]; Table 1): > 5.00
- TD50 (Primary T cells): >20 µM

Structure (SMILES): CCOc1cc(F)ccc1-c1cc(Nc2cc(F)c(OC)c(C(N)=O)c2)ncn1 [Example 139, 5-[6-(2-Ethoxy-4-fluoro-phenyl)-pyrimidin-4-ylamino]-3-fluoro-2-methoxy-benzamide]
- pIC50 ([1]; Table 1): > 5.00
- TD50 (Primary T cells): >20 µM

Structure (SMILES): COc1ccc(F)cc1-c1cc(Nc2cc(F)c(OC)c(C(N)=O)c2)ncn1 [Example 140, 3-Fluoro-5-[6-(5-fluoro-2-methoxy-phenyl)-pyrimidin-4-ylamino]-2-methoxy-benzamide]
- pIC50 ([1]; Table 1): > 5.00
- TD50 (Primary T cells): >20 µM

Structure (SMILES): CCOc1ccc(F)cc1-c1cc(Nc2cc(C(N)=O)c(OC)cc2F)ncn1 [Example 148, 5-[6-(2-Ethoxy-5-fluoro-phenyl)-pyrimidin-4-ylamino]-4-fluoro-2-methoxy-benzamide]
- pIC50 ([1]; Table 1): > 5.00
- TD50 (Primary T cells): 1 µM

Structure (SMILES): CN1CC[C@H](c2c(O)cc(O)c3c(=O)cc(-c4ccccc4Cl)oc23)[C@H](O)C1 [Flavopiridol, reference compound]
- anti-HIV and cytotoxicity profile [2]: poor
- TD50 (Primary T cells): 0.1 µM

Structure (SMILES): CC[C@H](CO)Nc1nc(NCc2ccccc2)c2ncn(C(C)C)c2n1 [Roscovitine, reference compound]
- anti-HIV and cytotoxicity profile [2]: poor
- TD50 (Primary T cells; [3]): 8 µM

Reference: patent US9617225B2 (VIROSTATICS SRL, priority 2012, dated 2017)
